The subject of one series is ddY mice. The series can be described thus: Anticatalepsy activity in mouse (haloperidol-induced catalepsy). In kind it is in vivo. Conditions: 3.2 mg/kg orally, ddY mice (n=7); haloperidol 0.32 mg/kg i.p. 30 min after compound; measured 30 min after injection, bar test up to 30 sec. As for the experimental part:
Test 2: Anticatalepsy Activity in Mouse
The test compound (3.2 mg/kg) was administered orally with ddY mice(n=7). Then, haloperidol (0.32 mg/kg) was injected intraperitoneally 30 min. after the administration of the compound. Thirty minutes after the injection, the cataleptic responses of mice were measured. The forelimbs of each mouse were placed on a 3 cm high, 3 mm wide horizontal bar, and the duration of cataleptic posture was measured for up to 30 sec.

For a further series, the target named is human A2a receptor (Homo sapiens, UniProt P29274). Kind of series: Adenosine antagonistic activity, radioligand binding with [3H]CGS 21680. Conditions: [3H]CGS 21680, 20 nM. The method, then: (§1) Test 1: Adenosine Antagonistic Activity
Chain of human A2a receptor (P29274 whole entry): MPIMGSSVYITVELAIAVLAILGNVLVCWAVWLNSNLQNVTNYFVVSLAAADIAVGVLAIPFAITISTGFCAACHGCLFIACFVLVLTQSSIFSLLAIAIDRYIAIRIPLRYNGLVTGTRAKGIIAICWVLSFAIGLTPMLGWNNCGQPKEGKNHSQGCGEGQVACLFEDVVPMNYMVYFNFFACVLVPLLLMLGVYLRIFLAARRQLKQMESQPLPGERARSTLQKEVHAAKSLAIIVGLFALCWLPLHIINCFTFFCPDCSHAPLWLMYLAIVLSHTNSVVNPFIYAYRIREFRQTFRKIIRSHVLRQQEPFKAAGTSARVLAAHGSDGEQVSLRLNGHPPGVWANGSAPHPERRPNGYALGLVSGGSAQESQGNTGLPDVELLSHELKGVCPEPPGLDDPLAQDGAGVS
(§2) The adenosine antagonistic activity [Ki(nM)] of the test compound was examined by radioligand binding techniques using 8-cyclopentyl-1,3-dipropylxanthine, [dipropyl-2,3^−3H(N)] ([3H]DPCPX, 4.5 nM) for human A1 receptor and [3H]CGS 21680 (20 nM) for human A2a receptor.

The next series concerns the target T1, human A1 receptor (Homo sapiens, UniProt P30542).
T1 sequence (P30542 1-326): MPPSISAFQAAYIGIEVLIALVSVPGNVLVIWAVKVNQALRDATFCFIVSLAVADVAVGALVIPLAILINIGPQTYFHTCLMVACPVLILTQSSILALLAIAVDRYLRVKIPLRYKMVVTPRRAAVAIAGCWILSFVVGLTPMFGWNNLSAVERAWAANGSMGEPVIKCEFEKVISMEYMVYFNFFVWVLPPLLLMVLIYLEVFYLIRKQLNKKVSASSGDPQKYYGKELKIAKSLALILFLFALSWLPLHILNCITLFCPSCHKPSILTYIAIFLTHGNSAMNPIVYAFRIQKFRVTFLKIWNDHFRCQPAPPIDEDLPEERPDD
Kind of series: Adenosine antagonistic activity, radioligand binding with [3H]DPCPX. Conditions: 4.5 nM. As for the experimental part:
as §1, §2

One may read the Ki as the equilibrium dissociation constant of an inhibitor or competing ligand from its target. Higher therefore signals lower affinity. The melting point is the temperature, or range, at which the solid turns liquid. The compound `CC(C)n1nc(-c2sc(C(=O)NCc3ccncc3)nc2-c2ccccc2)ccc1=O` [Example 233, 5-(1-Isopropyl-6-oxo-1,6-dihydro-3-pyridazinyl)-4-phenyl-N-(4-pyridinylmethyl)-1,3-thiazole-2-carboxamide] showed a melting point of 192 to 193 °C. Moreover, the “Manifestation rate of catalepsy (number of mouse)” value in the series on ddY mice was 0/7. For the same compound, the affinity on human A2a receptor corresponds to a Ki of 1.14 nM. The affinity on human A1 receptor corresponds to a Ki of 1.03 nM.
For `CC(C)n1nc(-c2sc(NC(=O)CNCc3ccncc3)nc2-c2ccccc2)ccc1=O` [Example 100, N-[5-(1-isopropyl-6-oxo-1,6-dihydro-3-pyridazinyl)-4-phenyl-1,3-thiazol-2-yl]-2-[(4-pyridinylmethyl)amino]acetamide] the same measures were 187 to 188 °C, 0/7, 1.22 nM and 0.61 nM.
With `COc1ccc(CC(=O)Nc2nc(-c3ccccc3)c(-c3ccc(=O)n(C(C)C)n3)s2)cc1` [Example 9, N-[5-(1-Isopropyl-6-oxo-1,6-dihydro-3-pyridazinyl)-4-phenyl-1,3-thiazol-2-yl]-2-(4-methoxyphenyl)acetamide], the melting point lay in the range of 188 to 190 °C. Also, in the series on ddY mice, the “Manifestation rate of catalepsy (number of mouse)” value was 0/7. Besides, on human A2a receptor, affinity was put at a Ki of 1.22 nM. In addition, the Ki at human A1 receptor came to 0.28 nM.

The record behind these values is US20050004134A1, “Thiazole derivative and pharmaceutical use thereof” (priority 2001, published 2005).
